What was measured:
[1] = test system: ducksalad (Heteranthera limosa); assay: Test B flooded paddy test, visual rating 0-100; details: Flood, 250 g ai/ha, applied to paddy water, rated after 13 to 15 days
[2] = test system: ryegrass, Italian (Italian ryegrass, Lolium multiflorum); assay: Test A preemergence, visual injury rating 0-100; format: in vivo
kochia (Kochia scoparia) [3] = assay: Test A preemergence, visual injury rating 0-100; format: in vivo
[4] = test system: foxtail, giant (giant foxtail, Setaria faberii); assay: Test A preemergence, visual injury rating 0-100; format: in vivo
[5] = test system: ragweed (common ragweed, Ambrosia elatior); assay: Test A preemergence, visual injury rating 0-100; format: in vivo
[6] = test system: pigweed (Amaranthus retroflexus); assay: Test A preemergence, visual injury rating 0-100; format: in vivo
[7] = test system: ryegrass, Italian (Italian ryegrass, Lolium multiflorum); assay: Test A postemergence, visual injury rating 0-100; format: in vivo; details: 0 to 100 scale
kochia (Kochia scoparia) [8] = assay: Test A postemergence, visual injury rating 0-100; format: in vivo; details: 0 to 100 scale
[9] = test system: blackgrass (Alopecurus myosuroides); assay: Test A postemergence, visual injury rating 0-100; format: in vivo; details: 0 to 100 scale
[10] = test system: barnyardgrass (Echinochloa crus-galli); assay: Test A postemergence, visual injury rating 0-100; format: in vivo; details: 0 to 100 scale
[11] = test system: wheat (Triticum aestivum); assay: Test A postemergence, visual injury rating 0-100; format: in vivo; details: 0 to 100 scale
[12] = test system: foxtail, giant (giant foxtail, Setaria faberii); assay: Test A postemergence, visual injury rating 0-100; format: in vivo; details: 0 to 100 scale
[13] = test system: ragweed (common ragweed, Ambrosia elatior); assay: Test A postemergence, visual injury rating 0-100; format: in vivo; details: 0 to 100 scale
[14] = test system: pigweed (Amaranthus retroflexus); assay: Test A postemergence, visual injury rating 0-100; format: in vivo; details: 0 to 100 scale
corn (Zea mays) = assay: Test A postemergence, visual injury rating 0-100; format: in vivo; details: 0 to 100 scale
[15] = test system: galium (catchweed bedstraw, Galium aparine); assay: Test A postemergence, visual injury rating 0-100; format: in vivo; details: 0 to 100 scale
[16] = test system: barnyardgrass (Echinochloa crus-galli); assay: Test A preemergence, visual injury rating 0-100 (0 no effect, 100 complete control); format: in vivo
rice (Oryza sativa) = assay: Test B flooded paddy test, visual rating 0-100 (0 no effect, 100 complete control); details: Flood, 250 g ai/ha, applied to paddy water, rated after 13 to 15 days
[17] = test system: barnyardgrass (Echinochloa crus-galli); assay: Test B flooded paddy test, visual rating 0-100; details: Flood, 250 g ai/ha, applied to paddy water, rated after 13 to 15 days
[18] = 31 g ai/ha, 0 to 100 scale (0 no effect, 100 complete control), approx. 10 days

SMILES | Ducksalad plant response rating (0 to 100 scale) [1] | Ryegrass, Italian plant response rating (0 to 100 scale) ([2]; 125 g ai/ha) | Ryegrass, Italian plant response rating (0 to 100 scale) ([2]; 500 g ai/ha) | Kochia plant response rating (0 to 100 scale) (kochia (Kochia scoparia) [3]; 125 g ai/ha) | Foxtail, Giant plant response rating (0 to 100 scale) ([4]; 125 g ai/ha) | Ragweed plant response rating (0 to 100 scale) ([5]; 125 g ai/ha) | Pigweed plant response rating (0 to 100 scale) ([6]; 125 g ai/ha) | Ryegrass, Italian plant response rating ([7]; 125 g ai/ha) | Kochia plant response rating (kochia (Kochia scoparia) [8]; 125 g ai/ha) | Blackgrass plant response rating ([9]; 125 g ai/ha) | Barnyardgrass plant response rating ([10]; 125 g ai/ha) | Wheat plant response rating ([11]; 125 g ai/ha) | Foxtail, Giant plant response rating ([12]; 125 g ai/ha) | Ragweed plant response rating ([13]; 125 g ai/ha) | Pigweed plant response rating ([14]; 125 g ai/ha) | Corn plant response rating (corn (Zea mays); 125 g ai/ha) | Galium plant response rating ([15]; 125 g ai/ha) | Barnyardgrass plant response rating (0 to 100 scale) ([16]; 125 g ai/ha) | Rice plant response rating (0 to 100 scale) (rice (Oryza sativa)) | Barnyardgrass plant response rating (0 to 100 scale) [17] | also measured
CC1=[N+]([O-])C(C(=O)Nc2cccc(F)c2F)C(c2cccc(C)c2C)C1 (racemic) [Compound 77] | 100 | 10 | 90 | 10 | 90 | 30 | 20 | 40 | 0 | 60 | 80 | 50 | 90 | 20 | 0 | 50 | 50 | 90 | 0 | 75 | Kochia plant response rating (0 to 100 scale) (kochia (Kochia scoparia) [3]; 500 g ai/ha): 70; Foxtail, Giant plant response rating (0 to 100 scale) ([4]; 500 g ai/ha): 90; Ragweed plant response rating (0 to 100 scale) ([5]; 500 g ai/ha): 80; Pigweed plant response rating (0 to 100 scale) ([6]; 500 g ai/ha): 70; Ryegrass, Italian plant response rating ([7]; 500 g ai/ha): 70; Kochia plant response rating (kochia (Kochia scoparia) [8]; 500 g ai/ha): 20; Blackgrass plant response rating ([9]; 500 g ai/ha): 80; Barnyardgrass plant response rating ([10]; 500 g ai/ha): 90; Wheat plant response rating ([11]; 500 g ai/ha): 70; Foxtail, Giant plant response rating ([12]; 500 g ai/ha): 90; Ragweed plant response rating ([13]; 500 g ai/ha): 60; Pigweed plant response rating ([14]; 500 g ai/ha): 20; Corn plant response rating (corn (Zea mays); 500 g ai/ha): 60; Galium plant response rating ([15]; 500 g ai/ha): 70; Barnyardgrass plant response rating (0 to 100 scale) ([16]; 500 g ai/ha): 90
CCc1cc(CC)cc(C2CC(C)=[N+]([O-])C2C(=O)Nc2cccc(F)c2F)c1 (racemic) [Compound 109] | 0 |  | 100 | 0 | 90 | 0 | 0 | 70 | 0 | 80 | 50 | 20 | 80 | 0 | 0 | 80 | 20 | 90 | 0 | 0 | Kochia plant response rating (0 to 100 scale) (kochia (Kochia scoparia) [3]; 500 g ai/ha): 50; Foxtail, Giant plant response rating (0 to 100 scale) ([4]; 500 g ai/ha): 90; Ragweed plant response rating (0 to 100 scale) ([5]; 500 g ai/ha): 30; Pigweed plant response rating (0 to 100 scale) ([6]; 500 g ai/ha): 0; Ryegrass, Italian plant response rating ([7]; 500 g ai/ha): 80; Kochia plant response rating (kochia (Kochia scoparia) [8]; 500 g ai/ha): 0; Blackgrass plant response rating ([9]; 500 g ai/ha): 90; Barnyardgrass plant response rating ([10]; 500 g ai/ha): 80; Wheat plant response rating ([11]; 500 g ai/ha): 80; Foxtail, Giant plant response rating ([12]; 500 g ai/ha): 90; Ragweed plant response rating ([13]; 500 g ai/ha): 0; Pigweed plant response rating ([14]; 500 g ai/ha): 0; Corn plant response rating (corn (Zea mays); 500 g ai/ha): 90; Galium plant response rating ([15]; 500 g ai/ha): 20; Barnyardgrass plant response rating (0 to 100 scale) ([16]; 500 g ai/ha): 100
CC1=[N+]([O-])C(C(=O)Nc2cccc(F)c2F)C(c2ccc(F)c(Cl)c2)C1 (racemic) [Compound 63] | 30 | 20 | 80 | 0 | 90 | 0 | 10 | 30 | 20 | 70 | 50 | 40 | 50 | 0 | 0 | 10 | 30 | 80 | 0 | 65 | Kochia plant response rating (0 to 100 scale) (kochia (Kochia scoparia) [3]; 500 g ai/ha): 40; Foxtail, Giant plant response rating (0 to 100 scale) ([4]; 500 g ai/ha): 90; Ragweed plant response rating (0 to 100 scale) ([5]; 500 g ai/ha): 80; Pigweed plant response rating (0 to 100 scale) ([6]; 500 g ai/ha): 60; Ryegrass, Italian plant response rating ([7]; 500 g ai/ha): 90; Kochia plant response rating (kochia (Kochia scoparia) [8]; 500 g ai/ha): 30; Blackgrass plant response rating ([9]; 500 g ai/ha): 90; Barnyardgrass plant response rating ([10]; 500 g ai/ha): 90; Wheat plant response rating ([11]; 500 g ai/ha): 80; Foxtail, Giant plant response rating ([12]; 500 g ai/ha): 90; Ragweed plant response rating ([13]; 500 g ai/ha): 20; Pigweed plant response rating ([14]; 500 g ai/ha): 20; Corn plant response rating (corn (Zea mays); 500 g ai/ha): 90; Galium plant response rating ([15]; 500 g ai/ha): 70; Barnyardgrass plant response rating (0 to 100 scale) ([16]; 500 g ai/ha): 90
CC1=[N+]([O-])[C@@H](C(=O)Nc2cccc(F)c2F)[C@H](c2cccc(Oc3ncc(F)cc3F)c2)C1 [Compound 70] | 0 | 0 |  | 0 | 90 | 0 | 0 | 0 | 0 | 30 | 70 | 0 | 0 | 0 | 20 | 0 | 30 | 80 | 0 | 0 | Ryegrass, Italian plant response rating [2, 18]: 0; Kochia plant response rating (kochia (Kochia scoparia) [3]; [18]): 0; Foxtail, Giant plant response rating [4, 18]: 20; Ragweed plant response rating [5, 18]: 0; Pigweed plant response rating [6, 18]: 0; Ryegrass, Italian plant response rating ([7]; 31 g ai/ha): 0; Kochia plant response rating (kochia (Kochia scoparia) [8]; 31 g ai/ha): 0; Blackgrass plant response rating ([9]; 31 g ai/ha): 0; Barnyardgrass plant response rating ([10]; 31 g ai/ha): 20; Wheat plant response rating ([11]; 31 g ai/ha): 0; Foxtail, Giant plant response rating ([12]; 31 g ai/ha): 0; Ragweed plant response rating ([13]; 31 g ai/ha): 0; Pigweed plant response rating ([14]; 31 g ai/ha): 0; Corn plant response rating (corn (Zea mays); 31 g ai/ha): 0; Galium plant response rating ([15]; 31 g ai/ha): 0; Barnyardgrass plant response rating [16, 18]: 40

From patent US11498899B2, “Nitrone herbicides” (FMC Corporation, priority 2016, dated 2022)
